“And” between values parts separate entries of the source, which are not always exact repeats. Equal values may be shown once. Where a name gives a salt, the structure may show the parent alone. Read-outs that look alike come from different tables or passages of the source.
How the values were obtained:
mice = conditions: metabolites identified in urine; cited from earlier work
[1] = cited from earlier work
[2] = cited from earlier work; for Half-lives (t1/2app): human, in vivo
[3] = in vivo; cited from earlier work
[4] = rats; cited from earlier work
[5] = humans; cited from earlier work
albumin = conditions: cited from earlier work
[6] = rat; cited from earlier work
[7] = dog, cited from earlier work
[8] = drug content of 80% saturated donor solution in propylene glycol; format: physicochemical; conditions: 80% of saturation, saturated at 32° C.
Procedure: For standardization, saturated solutions of bupropion in propylene glycol were made and 80% of the saturated solution was used as donor solutions. 1,100 mg bupropion has been suspended in 6.0 ml propylene glycol and was vortexed at 90 rpm for 68 hrs at 32° C. in a thermostated shaking cupboard. Controls have been done every 24 hrs to assure that sufficient undissolved drug was in the vessel. Thereafter the suspension was centrifuged (3,000 rpm) for 10 minutes and the clear supernatant was used as saturated solution.
For the diffusion experiments the donor solutions were freshly prepared for each experiment, 550 mg of the bupropion base were suspended in 3.0 ml propylene glycol (PG) and treated as previously described.
A spectroflow 400 pump (Separations, Hendrik Ido Ambacht, The Netherlands) was used to deliver the mobile phase, consisting of acetronitrile 0.1 m KF2 PO4 pH3 20:80 (v/v) with a flow rate of 0.8 ml/min. The mobile phase was degassed with a vacuum pump and chromatography was performed at ambient temperature. Sample amounts of 20 μl were injected with a Gilson model 321 autosampler (Gilson Middleton, Wisconsin USA) with a 20 microliter loop built in onto a inertsil 5 ODS column (Chrompack Nederland BV, Bergen op Zoom, The Netherlands). […] Bupropion base was detected by UV absorption at 310 nm using a spectra 100 spectrophometer (Spectra-Physics, Breda, The Netherlands). […]

[9] = rats; cited from earlier work; remark: listed apart in the source
[10] = mouse, cited from earlier work
[11] = dogs; cited from earlier work
[12] = oral administration; cited from earlier work

Q: For `C[C@H](NC(C)(C)C)[C@H](O)c1cccc(Cl)c1` (relative stereo) [EB], which activity in mice (mice) is on record?
A: have shown activity in mice

Q: What about the “quantifiability after oral dose” value ([1]; in vivo, po) of the same molecule?
A: not quantifiable

Q: What about the “Half-lives (t1/2app)” value [2] of the same molecule?
A: 61.4 ± 21.6 h

Q: With `C[C@@H](NC(C)(C)C)[C@H](O)c1cccc(Cl)c1` (relative stereo) [TB] as the molecule, how does the activity in mice (mice) read?
A: have shown activity in mice

Q: What about the “kinetics relative to MM” value ([1]; in vivo, po) of the same molecule?
A: parallel that of MM

Q: What about the “Half-lives (t1/2app)” value [2] of the same molecule?
A: 38.8 ± 7.6 h

Q: And the “antidepressive effect potency relative to parent medicament” value [3]?
A: half as parent medicament

Q: For `C[C@H](NC(C)(C)CO)[C@H](O)c1cccc(Cl)c1` (relative stereo) [erythro amino diol], which activity in mice (mice) is on record?
A: have shown activity in mice

Q: What about the “quantifiability after oral dose” value ([1]; in vivo, po) of the same molecule?
A: not quantifiable

Q: For `CC1NC(C)(C)COC1(O)c1cccc(Cl)c1` (centres unmarked) [HB], which activity in mice (mice) is on record?
A: have shown activity in mice

Q: What about the “AUC relative to medicament drug” value ([1]; single oral dose of bupropion) of the same molecule?
A: fifteen times

Q: What about the “Cmax relative to medicament drug” value ([1]; single oral dose of bupropion) of the same molecule?
A: three times

Q: And the “speed of appearance in the systemic circulation relative to parent” value ([1]; single oral dose)?
A: almost as fast

Q: What about the “antidepressive effect potency relative to parent medicament” value [3] of the same molecule?
A: half as potent

Q: With `CC(NC(C)(C)C)C(=O)c1cccc(Cl)c1` (centres unmarked) [bupropion hydrochloride] as the molecule, how does the extent of metabolism [4] read?
A: highly metabolized

Q: And the extent of metabolism [5]?
A: highly metabolized

Q: Which bound to albumin (albumin) does the source give for `CC(NC(C)(C)C)C(=O)c1cccc(Cl)c1` (centres unmarked) [bupropion] here?
A: 80%

Q: And the “induction of its own metabolism” value [6]?
A: induces its own metabolism

Q: And the “reductions (induction of own metabolism)” value ([7]; two different dose levels, over one year of treatment)?
A: 76% and 90%

Q: And the “induction of its own metabolism” value [7]?
A: induces its own metabolism

Q: And the “drug content of 80% saturated solution” value [8]?
A: 104 mg/ml PG

Q: And the first pass metabolism ([1]; in vivo)?
A: very rapid first pass metabolism

Q: What about the “dose proportionality of drug blood concentration” value ([1]; oral dosage, 100 to 250 mgs) of the same molecule?
A: dose proportional from 100 to 250 mgs

Q: And the biological half life ([1]; oral dosage)?
A: approximately 14 hours

Q: And the “biological half life, range” value ([1]; oral dosage)?
A: 8-24 hours

Q: What about the “time at which Cmax occurs” value ([1]; oral dosage) of the same molecule?
A: approximately 2 hours

Q: What about the “oral dose kinetics model” value ([1]; single oral dose) of the same molecule?
A: best described by a 2 compartment open model with first order absorption

Q: What about the absolute bioavailability [9] of the same molecule?
A: five to twenty

Q: And the “reduction (induction of own metabolism)” value ([10]; over ten days)?
A: 58%

Q: And the “induction of its own metabolism” value [10]?
A: induces its own metabolism

Q: What about the “half-life change after multiple dosing” value ([2]; elderly patients, after multiple dosing) of the same molecule?
A: did not change significantly

Q: What about the absolute bioavailability [11] of the same molecule?
A: five to twenty

Q: For `CC(NC(C)(C)C)C(=O)c1cccc(Cl)c1` (centres unmarked) [carbon 14 bupropion], which excreted unchanged [12] is on record?
A: less than 0.5%

Q: What about the “radioactivity recovered in the feces” value [12] of the same molecule?
A: 10%

Q: And the “radioactivity recovered in the urine” value [12]?
A: 87%

From US6280763A, “Apparatus and method for transdermal delivery of bupropion” (priority 1999, dated 2001)
